From patent EP0260057A2, “2-Oxo-4-carboxy-pyrimidines” (THE UNIVERSITY OF MELBOURNE, priority 1986, dated 1988)
Each block holds one molecule with its values, some of them ahead of it.

Target: T1, dihydroorotase (Mesocricetus auratus, UniProt P08955)
T1 construct: purified by an established procedure from a mutant hamster cell line which overproduces the target enzyme; endogenous in cells; host or cells: mutant hamster cell line overproducing the enzyme more than 100-fold; enzyme purified from these cells
T1 sequence (P08955 whole entry): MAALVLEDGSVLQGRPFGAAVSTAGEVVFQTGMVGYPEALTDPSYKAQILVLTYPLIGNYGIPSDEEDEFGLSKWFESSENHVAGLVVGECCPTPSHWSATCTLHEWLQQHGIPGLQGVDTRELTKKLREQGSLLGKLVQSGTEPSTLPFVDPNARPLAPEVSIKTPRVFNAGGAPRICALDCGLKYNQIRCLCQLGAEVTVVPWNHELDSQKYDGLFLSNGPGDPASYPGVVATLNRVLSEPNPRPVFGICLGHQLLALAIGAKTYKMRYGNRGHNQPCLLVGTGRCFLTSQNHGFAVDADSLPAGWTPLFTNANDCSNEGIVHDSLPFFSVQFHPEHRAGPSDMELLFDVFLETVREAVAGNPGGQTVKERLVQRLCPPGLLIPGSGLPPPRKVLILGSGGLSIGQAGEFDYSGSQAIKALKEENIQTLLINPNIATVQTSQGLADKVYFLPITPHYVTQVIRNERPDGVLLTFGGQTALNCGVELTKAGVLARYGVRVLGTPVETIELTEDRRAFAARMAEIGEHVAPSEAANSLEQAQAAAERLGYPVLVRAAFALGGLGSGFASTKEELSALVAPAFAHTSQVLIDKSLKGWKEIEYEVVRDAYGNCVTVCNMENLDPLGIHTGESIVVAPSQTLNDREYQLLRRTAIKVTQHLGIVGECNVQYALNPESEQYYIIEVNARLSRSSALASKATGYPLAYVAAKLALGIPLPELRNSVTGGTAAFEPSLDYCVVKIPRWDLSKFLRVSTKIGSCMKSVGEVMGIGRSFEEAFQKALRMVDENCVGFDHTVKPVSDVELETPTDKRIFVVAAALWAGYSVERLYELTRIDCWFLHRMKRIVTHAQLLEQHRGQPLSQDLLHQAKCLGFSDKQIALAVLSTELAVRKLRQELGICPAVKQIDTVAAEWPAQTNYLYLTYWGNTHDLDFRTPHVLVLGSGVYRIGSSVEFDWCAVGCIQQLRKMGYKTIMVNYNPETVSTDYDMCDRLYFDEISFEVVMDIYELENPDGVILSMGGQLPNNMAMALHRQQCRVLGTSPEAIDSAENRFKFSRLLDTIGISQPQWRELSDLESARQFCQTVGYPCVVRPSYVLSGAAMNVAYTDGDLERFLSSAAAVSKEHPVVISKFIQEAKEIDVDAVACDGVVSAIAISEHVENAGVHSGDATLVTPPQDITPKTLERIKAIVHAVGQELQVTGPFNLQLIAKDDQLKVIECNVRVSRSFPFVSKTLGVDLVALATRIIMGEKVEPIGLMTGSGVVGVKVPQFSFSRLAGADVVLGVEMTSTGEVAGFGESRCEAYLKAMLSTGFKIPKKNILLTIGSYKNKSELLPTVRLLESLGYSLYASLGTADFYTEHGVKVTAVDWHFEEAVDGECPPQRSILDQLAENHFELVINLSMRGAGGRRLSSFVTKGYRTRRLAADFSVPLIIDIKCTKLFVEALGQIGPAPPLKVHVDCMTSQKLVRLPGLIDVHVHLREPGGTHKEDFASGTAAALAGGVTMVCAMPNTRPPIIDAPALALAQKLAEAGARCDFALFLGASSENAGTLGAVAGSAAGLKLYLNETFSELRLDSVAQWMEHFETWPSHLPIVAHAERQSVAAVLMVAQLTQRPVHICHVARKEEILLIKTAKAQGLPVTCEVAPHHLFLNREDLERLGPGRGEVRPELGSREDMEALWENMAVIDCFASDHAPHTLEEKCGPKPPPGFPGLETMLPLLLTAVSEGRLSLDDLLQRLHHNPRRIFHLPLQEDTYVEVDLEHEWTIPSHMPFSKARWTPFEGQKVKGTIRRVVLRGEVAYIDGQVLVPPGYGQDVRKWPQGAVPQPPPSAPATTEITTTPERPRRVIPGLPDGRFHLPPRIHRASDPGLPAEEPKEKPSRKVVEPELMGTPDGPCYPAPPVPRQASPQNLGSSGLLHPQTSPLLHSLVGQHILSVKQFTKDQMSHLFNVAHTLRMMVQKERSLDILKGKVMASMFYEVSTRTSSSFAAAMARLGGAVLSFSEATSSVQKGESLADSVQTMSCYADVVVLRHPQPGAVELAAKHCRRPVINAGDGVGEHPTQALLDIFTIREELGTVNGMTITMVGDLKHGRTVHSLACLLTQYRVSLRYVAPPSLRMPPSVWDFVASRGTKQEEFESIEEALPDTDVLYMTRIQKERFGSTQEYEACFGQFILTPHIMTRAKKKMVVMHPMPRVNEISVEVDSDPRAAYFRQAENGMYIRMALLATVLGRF
Experiment: Dihydroorotase inhibition assay (conversion of L-[14C]dihydroorotate to N-[14C]carbamyl-L-aspartate)
Format: biochemical, hamster
Experimental: Dihydroorotase has been purified by an established procedure from a mutant hamster cell line which overproduces the target enzyme by more than 100-fold (P.F. Coleman, D.P. Suttle and G.R. Stark (1978) in "Methods in Enzymology" (P.A. Hoffee and M.E. Jones eds.) Vol. 51, pp 121-134, Academic Press, New York; P.F. Coleman D.P. Suttle and G.R. Stark (1977) J. Biol. Chem. 252, 6379-6385). Purified dihydroorotase was stored at -70°C in a solution containing 30% (v/v) dimethyl sulphoxide, 5% (v/v) glycerol, 50 mM KCl, 4 mM L-glutamine, 4 mM L-aspartate, 0.1 mM EDTA and 1 mM dithiothreitol.
Dihydroorotase catalyses the conversion of N-carbamyl-L-aspartate to L-dihydroorotate. To assess the effects of a potential inhibitor of this target enzyme, the rate of conversion of L-dihydroorotate to N-carbamyl-L-aspartate catalysed by dihydroorotase was measured in the presence of a range of concentrations of the inhibitor. For a tight-binding inhibitor like TDHO, extremely low concentrations are sufficient to abolish all dihydroorotase activity. To illustrate the inhibitory potency of TDHO, results of the following experiment are presented. Assay mixtures for dihydroorotase activity contained in a total volume of 25 ul, 50 mM K.Hepes buffer pH 7.4, 5% (v/v) glycerol 12.5 µM L-[¹⁴C]dihydroorotate (specific radioactivity 47.1 Ci/mol), and TDHO concentrations ranging from 0 - 1.50 µM containing a 30-fold molar excess of ZnCl₂. Catalysis was initiated by addition of 39 ng of dihydroorotase. The rate of conversion of L-[¹⁴C]dihydroorotate to N-[¹⁴C]carbamyl-L-aspartate was measured in the presence of different concentrations of TDHO, using established procedures (R.I. Christopherson, T. Matsuura and M.E. Jones (1978) Analytical Biochemistry 100, 184-187). The assay mixture lacking TDHO had the fastest reaction velocity while the lowest velocity measured was in the presence of the highest concentration of TDHO. The results data are plotted as the reciprocal of reaction velocity (l/v) versus the concentration of TDHO from which a value for the dissociation constant (Ki value) for TDHO from the enzyme-TDHO complex can be obtained.
Assay mixtures for dihydroorotase activity contained in a total volume of 25 µl:50 mM K.Hepes buffer pH 7.4, 5% (v/v) glycerol, 12.5 µM L-[¹⁴C]dihydroorotate (specific radioactivity 47.1 Ci/mol), and HDDP concentrations ranging from 0 - 5 µM. Catalysis was initiated by addition of 39 ng of dihydroorotase. The rate of conversion of L-[¹⁴C]dihydroorotate to N-[¹⁴C]carbamyl-L-aspartate was measured in the presence of different concentrations of HDDP, in a similar manner to Test 3.

- Ki (HDDP 0 - 5 µM, pH 7.4, 12.5 µM L-[¹⁴C]dihydroorotate, no ZnCl₂ mentioned): 480 nM
Molecule: O=C1NC(C(=O)O)=CC(C(=O)O)N1 (stereo not shown) [HDDP, 2-oxo-1,2,3,6-tetrahydropyrimidine-4,6-dicarboxylic acid]

- Ki (TDHO containing a 30-fold molar excess of ZnCl₂, pH 7.4, 12.5 µM L-[¹⁴C]dihydroorotate): 53 nM
- Ki (free acid of TDHO, in the absence of Zn²⁺): 4500 nM
Molecule: O=C1NC(=S)CC(C(=O)O)N1 (stereo not shown) [TDHO, Hexahydro-2-oxo-6-thioxo-4-pyrimidinecarboxylic acid]

- inhibitory effect (ZnCl₂ alone, at the same concentrations as in the TDHO experiment): moderate inhibitory effect
Molecule: ZnCl₂ [reference compound]
